The values that follow come from publication PMC5740388, “In Vitro Antibacterial Properties of Cefiderocol, a Novel Siderophore Cephalosporin, against Gram-Negative Bacteria” (Antimicrobial Agents and Chemotherapy, 2017).

Structures are written as SMILES. Read-outs that look alike come from different tables or passages of the source.

What all share (test): competition with […]benzylpenicillin for PBPs
Type in all cases: binding

Experiment [1] addresses T1, PBP2 of E. coli NIHJ JC-2 (Escherichia coli, UniProt P0AD65).
T1 construct: gene mrdA
T1 sequence (P0AD65 1-633): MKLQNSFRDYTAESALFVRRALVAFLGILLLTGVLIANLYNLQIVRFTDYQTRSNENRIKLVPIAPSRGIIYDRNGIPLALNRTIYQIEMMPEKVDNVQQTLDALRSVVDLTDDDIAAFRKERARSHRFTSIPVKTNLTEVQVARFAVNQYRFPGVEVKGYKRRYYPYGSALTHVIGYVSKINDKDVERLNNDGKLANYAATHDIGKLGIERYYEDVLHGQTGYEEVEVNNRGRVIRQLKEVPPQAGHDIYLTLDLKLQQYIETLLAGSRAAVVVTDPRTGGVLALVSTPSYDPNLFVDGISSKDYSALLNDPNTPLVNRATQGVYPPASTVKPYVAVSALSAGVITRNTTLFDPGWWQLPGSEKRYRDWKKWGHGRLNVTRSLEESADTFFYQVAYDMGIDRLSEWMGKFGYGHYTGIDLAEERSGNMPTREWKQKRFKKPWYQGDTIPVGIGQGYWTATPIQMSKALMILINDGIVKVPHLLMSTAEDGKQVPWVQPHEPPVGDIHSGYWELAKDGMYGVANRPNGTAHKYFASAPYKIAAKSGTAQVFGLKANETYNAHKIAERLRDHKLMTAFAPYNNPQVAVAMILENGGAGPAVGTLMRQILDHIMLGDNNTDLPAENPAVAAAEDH
The conditions noted are these: covalent.

Experiment [2] addresses T2, PBP1b of K. pneumoniae SR22291 (Klebsiella pneumoniae, UniProt A0ACD7TXF1).
T2 construct: gene mrcB
T2 sequence (A0ACD7TXF1 1-850): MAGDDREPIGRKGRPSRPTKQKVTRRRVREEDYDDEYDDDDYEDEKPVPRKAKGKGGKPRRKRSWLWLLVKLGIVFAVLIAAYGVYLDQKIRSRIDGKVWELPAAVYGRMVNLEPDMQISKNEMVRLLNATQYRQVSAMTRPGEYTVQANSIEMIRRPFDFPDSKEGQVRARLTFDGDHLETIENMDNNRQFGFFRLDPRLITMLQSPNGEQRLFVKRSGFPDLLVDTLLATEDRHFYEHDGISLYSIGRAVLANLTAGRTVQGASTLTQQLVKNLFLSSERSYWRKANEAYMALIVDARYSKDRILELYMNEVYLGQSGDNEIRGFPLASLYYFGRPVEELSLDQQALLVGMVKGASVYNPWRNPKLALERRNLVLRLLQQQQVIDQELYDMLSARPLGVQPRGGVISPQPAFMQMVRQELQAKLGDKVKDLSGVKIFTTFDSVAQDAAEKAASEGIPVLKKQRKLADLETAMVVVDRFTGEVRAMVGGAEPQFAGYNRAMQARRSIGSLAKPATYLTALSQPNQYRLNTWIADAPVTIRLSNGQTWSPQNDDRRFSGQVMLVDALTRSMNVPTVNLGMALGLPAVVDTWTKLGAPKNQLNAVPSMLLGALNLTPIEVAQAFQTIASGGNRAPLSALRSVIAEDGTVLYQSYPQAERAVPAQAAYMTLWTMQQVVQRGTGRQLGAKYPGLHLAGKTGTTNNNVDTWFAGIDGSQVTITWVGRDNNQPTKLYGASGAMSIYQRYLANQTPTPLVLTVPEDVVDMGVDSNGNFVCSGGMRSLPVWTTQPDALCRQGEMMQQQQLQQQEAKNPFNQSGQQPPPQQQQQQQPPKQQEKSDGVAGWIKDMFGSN
The conditions noted are these: covalent.

For experiment [3], the target named is T3, PBP4 of E. coli NIHJ JC-2 (Escherichia coli, UniProt P24228).
T3 construct: gene dacB
The following applies: read-out: % inhibition at 4 μg/ml.

Experiment [4] has as its target T3, PBP4 of E. coli NIHJ JC-2. The conditions noted are these: covalent; read-out: IC50 (μg/ml) / E. coli NIHJ JC-2 / Ceftazidime.

On to `CC(C)(O/N=C(\C(=O)N[C@@H]1C(=O)N2C(C(=O)[O-])=C(C[N+]3(CCNC(=O)c4ccc(O)c(O)c4Cl)CCCC3)CS[C@H]12)c1csc(N)n1)C(=O)O` [cefiderocol], for which the values for the IC50 in experiment [1] (read-out: IC50 (μg/ml) / E. coli NIHJ JC-2 / Cefiderocol (converted)) and in experiment [2] (read-out: IC50 (μg/ml) / K. pneumoniae SR22291 / Cefiderocol (converted)) were 2.82 µM and 4.65 µM, respectively. Also, the inhibition at 4 µg/mL in experiment [3] came to 63%.

In the case of `CC(C)(O/N=C(\C(=O)N[C@@H]1C(=O)N2C(C(=O)[O-])=C(C[n+]3ccccc3)CS[C@H]12)c1csc(N)n1)C(=O)O` [ceftazidime], the IC50 in experiment [1] (read-out: IC50 (μg/ml) / E. coli NIHJ JC-2 / Ceftazidime) was greater than 7.32 µM; in experiment [2] (read-out: IC50 (μg/ml) / K. pneumoniae SR22291 / Ceftazidime (converted)), 4.21 µM; in experiment [4] it was greater than 1.83 µM.
